Experiments:
[1] = test system: Arabidopsis callus; type: cell-based
[2] = Translocation of radiolabelled compound applied to tomato leaves; type: in vivo; details: tissues analysed after two days
Procedure: The critical tests for a prophytotoxin to be used in negative selection, cell ablation and as a gametocide are that the compound is non-phytotoxic per se but can be hydrolyzed into a phytotoxin by the phosphonate monoester hydrolase protein. The most general and specific method to determine if a protoxin is hydrolyzed to a toxic form of glyphosate is a HPLC assay. The compounds are dissolved at 100 mM concentration in a suitable buffer such as 10 mM TAPS, (N-Tris(hydroxymethyl)methyl-2-aminopropane sulfonic acid) pH 9.0. Triplicate samples (0.1 ml) of the compound are then diluted with 0.9 ml of 10 mM TAPS, pH 9.0 and with 0.9 ml 10 mM TAPS, pH 9.0 plus one unit (1 μmol/min) of enzyme. After 24 hour incubation at 25° C., the samples are injected onto a HPLC column for glyphosate analysis. […] The protoxin and glyphosate are separated on an anion exchange column. the glyphosate is oxidized as it elutes in the presence of bleach and is then derivatized by o-pthaldehyde to a fluorescent derivative which can be quantitatively measured by a fluorescence monitor. […] After two days, the plant is dissected into individual tissues and the amount of protoxin in each tissue determined. […] The tissue samples were then combusted and the amount of radiolabelled compound in each tissue determined by scintillation counting.

[3] = Storage stability of radioactive glyceryl glyphosate; type: physicochemical; details: radioactive compound stored at -20° C. over a period of 3 months
[4] = test system: E. coli MM294, JM101, JM101/MPU+, SR200/MPU; experiment: In vivo (3-14C-) glyceryl glyphosate hydrolysis assay in whole cells; type: cell-based; details: E. coli strains; three hour incubation, 30° C.
[5] = test system: E. coli JM101/pMON9428 (pehA:1); experiment: Conditional lethal phenotype test on MOPS minimal plates; type: cell-based
Text: (§1) The NcoI-BamHI pehA:1 fragment was removed from pMON9420 by restricting the DNA with both enzymes, separating the fragments on an agarose gel, and purifying the pehA fragment from the gel using the GeneClean kit. In a similar manner the BamHI-ClaI pehA:1 fragment was obtained from pMON9421 and both were ligated into an E. coli expression vector to reconstruct the pehA:1 gene behind the RecA promoter with the […] gene 10L leader. The resulting vector, pMON9428 (FIG. 3), was transformed into E. coli strain JM101 using calcium chloride transformation and transformants selected on LB agar with 100 μg/ml spectinomycin. A single colony was isolated and confirmed by restriction mapping to contain pMON9428. The JM101/pMON9428 was then streaked out on LB agar plates containing 100 μg/ml spectinomycin and […] XPP. As a control, JM101 containing the RecA expression vector without the pehA:1 gene was streaked out on the same plate. The JM101/pMON9428 formed blue colonies while the JM101 with the control vector formed white colonies. […] The JM101/pMON9428 and vector control strain were then plated on MOPS minimal medium containing 0.05 mM HK2 PO4 as the phosphate source and 100 μg/ml spectinomycin. […] To test for a conditional lethal phenotype, both strains were streaked side by side on a MOPS minimal plate with 0.05 mM KPO4, 100 μg/ml spectinomycin and 10 mM glyceryl glyphosate. […] To confirm the lethal phenotype was the result of the degradation of the glyceryl glyphosate and subsequent inhibition of aromatic amino acid biosynthesis by glyphosate, both E. coli strains were plated on MOPS minimal medium with 0.05 mM KPO4, 100 μg/ml spectinomycin, 10 mM glyceryl glyphosate and supplemented with aromatic compounds consisting of L-tyrosine, L-tryptophan, L-phenylalanine, each at 100 μg/ml, 2,3 -dihydroxybenzoicacid and para-aminobenzoic acid, each at 5 μg/ml. […] This confirmed that the conditional lethal phenotype observed in the presence of the glyceryl glyphosate was the result of its conversion to and subsequent inhibition of EPSPS by glyphosate.

[6] = test system: E. coli JM101/vector control; experiment: as above; type: cell-based
Text: as §1

With `O=C(O)CNCP(=O)(O)OCC(O)CO` (centres unmarked) [glyceryl glyphosate, glycine, N-([hydroxy (2,3 dihydroxy propoxy)phosphonyl]methyl)] the Cytotoxicity [1] was “relatively non-cytotoxic”, the “Translocation to developing anthers” value [2] was “translocates to developing anthers” and the Storage stability [3] was “unstable”. The “In vivo Hydrolysis of Glyceryl Glyphosate into Glyphosate” value [4] was “No”, the “Colony formation with aromatic compound supplement” value ([5]; 10 mM glyceryl glyphosate plus L-tyrosine, L-tryptophan, L-phenylalanine, 2,3-dihydroxybenzoic acid, para-aminobenzoic acid) was “formed colonies” and the “Colony formation (lethal phenotype)” value ([5]; 10 mM glyceryl glyphosate, MOPS minimal plate) was “did not form visible colonies”. For the same molecule, the “Colony formation with aromatic compound supplement” value ([6]; 10 mM glyceryl glyphosate plus L-tyrosine, L-tryptophan, L-phenylalanine, 2,3-dihydroxybenzoic acid, para-aminobenzoic acid, vector control strain) was “formed colonies” and the “Toxicity (colony formation)” value ([6]; 10 mM glyceryl glyphosate, MOPS minimal plate, JM101/vector control) was “non-toxic”.

From patent US5254801A, “Heterologous dominant conditional lethal gene which is a phosphonate monoester hydrolase and use thereof in plants” (Monsanto Company, priority 1990, dated 1993)
